Test results taken from PubChem BioAssay AID270 (DTP/NCI, 2004).
Values joined by “and” are separate entries in the source; they are usually repeats but may differ in a detail not shown here. Equal values may be shown once. Results filed as inconclusive are left out.

Test system: BDF1 mice, s.c. Lewis lung carcinoma, T/C %
Assay: NCI In Vivo Anticancer Drug Screen. Data for tumor model Lewis Lung Carcinoma (subcutaneous) in B6D2F1 (BDF1) mice
Summary of the method: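 The value reflects a ratio in which the treated cohort's survival time or tumour size is compared against mice receiving only vehicle.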

`O=C(O)CC(NC(=O)CP(=O)(O)O)C(=O)O` (configuration not stated) was tested, and the T/C (endpoint: median survival time, dose: 12.5 mg/kg/injection, schedule: Q01DX009 (ip), vehicle: saline, higher = longer survival) was 120 % of control and 121 % of control, the T/C (endpoint: median survival time, dose: 17.1 mg/kg/injection, schedule: Q01DX004 (ip), vehicle: saline, higher = longer survival) was 120 % of control and the T/C (endpoint: median survival time, dose: 18.8 mg/kg/injection, schedule: Q01DX004 (ip), vehicle: saline, higher = longer survival) was 124 % of control. For the same molecule, the T/C (endpoint: median survival time, dose: 23.3 mg/kg/injection, schedule: Q01DX009 (ip), vehicle: saline, higher = longer survival) was 121 % of control, the T/C (endpoint: median survival time, dose: 25.0 mg/kg/injection, schedule: Q01DX004 (ip), vehicle: saline, higher = longer survival) was 226 % of control and the T/C (endpoint: median survival time, dose: 34.1 mg/kg/injection, schedule: Q01DX004 (ip), vehicle: saline, higher = longer survival) was 178 % of control. For the same molecule, the T/C (endpoint: median survival time, dose: 37.5 mg/kg/injection, schedule: Q01DX004 (ip), vehicle: saline, higher = longer survival) was 120 % of control, the T/C (endpoint: median survival time, dose: 38.9 mg/kg/injection, schedule: Q01DX004 (ip), vehicle: saline, higher = longer survival) was 123 % of control and the T/C (endpoint: median survival time, dose: 38.9 mg/kg/injection, schedule: Q01DX009 (oral), vehicle: saline, higher = longer survival) was 100 % of control. For the same molecule, the T/C (endpoint: median survival time, dose: 50.0 mg/kg/injection, schedule: Q01DX004 (ip), vehicle: saline, higher = longer survival) was 225 % of control, the T/C (endpoint: median survival time, dose: 50.0 mg/kg/injection, schedule: Q01DX005 (ip), vehicle: saline, higher = longer survival) was 95 % of control and the T/C (endpoint: median survival time, dose: 64.0 mg/kg/injection, schedule: Q01DX004 (ip), vehicle: saline, higher = longer survival) was 108 % of control. For the same molecule, the T/C (endpoint: median survival time, dose: 64.8 mg/kg/injection, schedule: Q01DX004 (ip), vehicle: saline, higher = longer survival) was 175 % of control and 197 % of control, the T/C (endpoint: median survival time, dose: 64.8 mg/kg/injection, schedule: Q01DX009 (ip), vehicle: saline, higher = longer survival) was 167 % of control and the T/C (endpoint: median survival time, dose: 64.8 mg/kg/injection, schedule: Q01DX009 (oral), vehicle: saline, higher = longer survival) was 103 % of control. For the same molecule, the T/C (endpoint: median survival time, dose: 68.3 mg/kg/injection, schedule: Q01DX004 (ip), vehicle: saline, higher = longer survival) was 247 % of control, the T/C (endpoint: median survival time, dose: 68.3 mg/kg/injection, schedule: Q01DX004 (ip), vehicle: suspension in saline, higher = longer survival) was 112 % of control and the T/C (endpoint: median survival time, dose: 70.0 mg/kg/injection, schedule: Q01DX009 (oral), vehicle: saline, higher = longer survival) was 122 % of control. For the same molecule, the T/C (endpoint: median survival time, dose: 75.0 mg/kg/injection, schedule: Q01DX004 (ip), vehicle: saline, higher = longer survival) was 247 % of control, the T/C (endpoint: median survival time, dose: 100.0 mg/kg/injection, schedule: Q01DX004 (ip), vehicle: saline, higher = longer survival) was 226 % of control and the T/C (endpoint: median survival time, dose: 108.0 mg/kg/injection, schedule: Q01DX004 (ip), vehicle: saline, higher = longer survival) was 197 % of control and 299 % of control. The T/C (endpoint: median survival time, dose: 108.0 mg/kg/injection, schedule: Q01DX009 (ip), vehicle: saline, higher = longer survival) was 222 % of control, the T/C (endpoint: median survival time, dose: 108.0 mg/kg/injection, schedule: Q01DX009 (oral), vehicle: saline, higher = longer survival) was 107 % of control and the T/C (endpoint: median survival time, dose: 108.0 mg/kg/injection, schedule: Q04DX004 (ip), vehicle: saline, higher = longer survival) was 118 % of control. For the same molecule, the T/C (endpoint: median survival time, dose: 110.0 mg/kg/injection, schedule: Q01DX009 (oral), vehicle: saline, higher = longer survival) was 122 % of control, the T/C (endpoint: median survival time, dose: 116.0 mg/kg/injection, schedule: Q01DX009 (ip), vehicle: saline, higher = longer survival) was 181 % of control and the T/C (endpoint: median survival time, dose: 125.0 mg/kg/injection, schedule: Q01DX009 (ip), vehicle: saline, higher = longer survival) was 176 % of control and 194 % of control. The T/C (endpoint: median survival time, dose: 133.0 mg/kg/injection, schedule: Q01DX007 (other), vehicle: saline, higher = longer survival) was 206 % of control, the T/C (endpoint: median survival time, dose: 133.0 mg/kg/injection, schedule: Q01DX007 (sc), vehicle: saline, higher = longer survival) was 206 % of control and the T/C (endpoint: median survival time, dose: 136.0 mg/kg/injection, schedule: Q01DX004 (ip), vehicle: suspension in saline, higher = longer survival) was 204 % of control. For the same molecule, the T/C (endpoint: median survival time, dose: 136.5 mg/kg/injection, schedule: Q01DX004 (ip), vehicle: saline, higher = longer survival) was 248 % of control, the T/C (endpoint: median survival time, dose: 140.0 mg/kg/injection, schedule: Q01DX009 (ip), vehicle: saline, higher = longer survival) was 166 % of control and the T/C (endpoint: median survival time, dose: 150.0 mg/kg/injection, schedule: Q01DX004 (ip), vehicle: saline, higher = longer survival) was 248 % of control. The T/C (endpoint: median survival time, dose: 150.0 mg/kg/injection, schedule: Q01DX009 (ip), vehicle: saline, higher = longer survival) was 186 % of control, the T/C (endpoint: median survival time, dose: 160.0 mg/kg/injection, schedule: Q01DX009 (oral), vehicle: saline, higher = longer survival) was 119 % of control and the T/C (endpoint: median survival time, dose: 167.0 mg/kg/injection, schedule: Q01DX010 (ip), vehicle: saline, higher = longer survival) was 152 % of control. For the same molecule, the T/C (endpoint: median survival time, dose: 175.0 mg/kg/injection, schedule: Q01DX009 (ip), vehicle: saline, higher = longer survival) was 163 % of control, the T/C (endpoint: median survival time, dose: 178.0 mg/kg/injection, schedule: Q01DX009 (ip), vehicle: saline, higher = longer survival) was 178 % of control and 237 % of control and the T/C (endpoint: median survival time, dose: 180.0 mg/kg/injection, schedule: Q01DX009 (ip), vehicle: saline, higher = longer survival) was 159 % of control and 222 % of control. The T/C (endpoint: median survival time, dose: 180.0 mg/kg/injection, schedule: Q01DX009 (oral), vehicle: saline, higher = longer survival) was 102 % of control, the T/C (endpoint: median survival time, dose: 180.0 mg/kg/injection, schedule: Q04DX004 (ip), vehicle: saline, higher = longer survival) was 178 % of control and the T/C (endpoint: median survival time, dose: 200.0 mg/kg/injection, schedule: Q01DX004 (ip), vehicle: saline, higher = longer survival) was 226 % of control. For the same molecule, the T/C (endpoint: median survival time, dose: 200.0 mg/kg/injection, schedule: Q01DX005 (ip), vehicle: saline, higher = longer survival) was 115 % of control, the T/C (endpoint: median survival time, dose: 200.0 mg/kg/injection, schedule: Q01DX007 (other), vehicle: saline, higher = longer survival) was 206 % of control and the T/C (endpoint: median survival time, dose: 200.0 mg/kg/injection, schedule: Q01DX007 (sc), vehicle: saline, higher = longer survival) was 206 % of control. The T/C (endpoint: median survival time, dose: 200.0 mg/kg/injection, schedule: Q01DX009 (ip), vehicle: saline, higher = longer survival) was 225 % of control, the T/C (endpoint: median survival time, dose: 240.0 mg/kg/injection, schedule: Q04DX003 (ip), vehicle: saline, higher = longer survival) was 150 % of control and the T/C (endpoint: median survival time, dose: 250.0 mg/kg/injection, schedule: Q01DX010 (ip), vehicle: saline, higher = longer survival) was 158 % of control. The T/C (endpoint: median survival time, dose: 265.0 mg/kg/injection, schedule: Q01DX009 (ip), vehicle: saline, higher = longer survival) was 195 % of control, the T/C (endpoint: median survival time, dose: 273.0 mg/kg/injection, schedule: Q01DX004 (ip), vehicle: saline, higher = longer survival) was 195 % of control and the T/C (endpoint: median survival time, dose: 273.0 mg/kg/injection, schedule: Q01DX004 (ip), vehicle: suspension in saline, higher = longer survival) was 177 % of control. For the same molecule, the T/C (endpoint: median survival time, dose: 300.0 mg/kg/injection, schedule: Q01DX007 (sc), vehicle: saline, higher = longer survival) was 198 % of control, the T/C (endpoint: median survival time, dose: 300.0 mg/kg/injection, schedule: Q04DX004 (ip), vehicle: saline, higher = longer survival) was 169 % of control and the T/C (endpoint: median survival time, dose: 343.0 mg/kg/injection, schedule: Q04DX003 (ip), vehicle: saline, higher = longer survival) was 153 % of control and 186 % of control (2×). The T/C (endpoint: median survival time, dose: 375.0 mg/kg/injection, schedule: Q01DX010 (ip), vehicle: saline, higher = longer survival) was 95 % of control, the T/C (endpoint: median survival time, dose: 400.0 mg/kg/injection, schedule: Q01DX004 (ip), vehicle: saline, higher = longer survival) was 224 % of control and the T/C (endpoint: median survival time, dose: 490.0 mg/kg/injection, schedule: Q04DX003 (ip), vehicle: saline, higher = longer survival) was 150 % of control and 186 % of control and 193 % of control. For the same molecule, the T/C (endpoint: median survival time, dose: 500.0 mg/kg/injection, schedule: Q04DX004 (ip), vehicle: saline, higher = longer survival) was 176 % of control, the T/C (endpoint: median survival time, dose: 833.0 mg/kg/injection, schedule: Q04DX004 (ip), vehicle: saline, higher = longer survival) was 64 % of control and the T/C (endpoint: median survival time, dose: 50.0 ml/mouse/injection, schedule: Q01DX005 (ip), vehicle: saline, higher = longer survival) was 94 % of control. For the same molecule, the T/C (endpoint: median survival time, dose: 200.0 ml/mouse/injection, schedule: Q01DX005 (ip), vehicle: saline, higher = longer survival) was 117 % of control.

In the case of `C=C(C)C12CC(COC(=O)c3ccccc3)C34OC5(OC1C3C1OC1(CO)C(O)C1(O)C(OC(=O)c3ccccc3)C(C)C(C(C)CCCCCCC5O)C14)O2` (configuration not stated), the T/C (endpoint: median survival time, dose: 3.8 micrograms/kg/injection, schedule: Q01DX009 (ip), vehicle: saline, higher = longer survival) was 107 % of control and the T/C (endpoint: median survival time, dose: 7.5 micrograms/kg/injection, schedule: Q01DX009 (ip), vehicle: saline, higher = longer survival) was 100 % of control.

For `O=C1CN=C(c2ccc[nH]2)c2cc(Cl)ccc2N1`, the T/C (endpoint: mean tumor weight, dose: 40.0 mg/kg/injection, schedule: Q01DX011 (ip), vehicle: other, higher = larger tumour) was 112 % of control and the T/C (endpoint: mean tumor weight, dose: 120.0 mg/kg/injection, schedule: Q01DX011 (ip), vehicle: other, higher = larger tumour) was 73 % of control and 90 % of control.

In the case of `C=C1C(=O)O[C@H]2C1[C@H](OC(=O)/C(C)=C\COC(C)=O)C[C@]1(CO1)[C@@H]1[C@H](O)[C@H]3O[C@@]3(C)[C@@H]12` (some centres not stated), the T/C (endpoint: median survival time, dose: 3.12 mg/kg/injection, schedule: Q01DX009 (ip), vehicle: other, higher = longer survival) was 86 % of control, the T/C (endpoint: median survival time, dose: 6.25 mg/kg/injection, schedule: Q01DX009 (ip), vehicle: other, higher = longer survival) was 89 % of control and the T/C (endpoint: median survival time, dose: 12.5 mg/kg/injection, schedule: Q01DX009 (ip), vehicle: other, higher = longer survival) was 97 % of control. The T/C (endpoint: median survival time, dose: 25.0 mg/kg/injection, schedule: Q01DX009 (ip), vehicle: other, higher = longer survival) was 99 % of control.

For `COC1C(O)=C2C(=O)OC(C)(O)/C=C/C=C\C=C/C=C/C(c3ccccc3)NC(=O)/C=C/C=C/C=C/C=C/C2(C)C1O` (configuration not stated), the T/C (endpoint: median survival time, dose: 0.12 mg/kg/injection, schedule: Q01DX009 (ip), vehicle: saline, higher = longer survival) was 92 % of control, the T/C (endpoint: median survival time, dose: 0.25 mg/kg/injection, schedule: Q01DX009 (ip), vehicle: saline, higher = longer survival) was 95 % of control and the T/C (endpoint: median survival time, dose: 0.5 mg/kg/injection, schedule: Q01DX009 (ip), vehicle: saline, higher = longer survival) was 100 % of control. For the same molecule, the T/C (endpoint: median survival time, dose: 0.62 mg/kg/injection, schedule: Q01DX009 (ip), vehicle: saline, higher = longer survival) was 113 % of control and the T/C (endpoint: median survival time, dose: 2.5 mg/kg/injection, schedule: Q01DX009 (ip), vehicle: saline, higher = longer survival) was 91 % of control.

`OC1c2cc(Cl)ccc2-c2c(Cl)cc(Cl)cc21` (configuration not stated) was tested, and the T/C (endpoint: mean tumor weight, dose: 63.0 mg/kg/injection, schedule: Q01DX011 (ip), vehicle: carboxymethylcellulose (CMC), higher = larger tumour) was 64 % of control, the T/C (endpoint: mean tumor weight, dose: 125.0 mg/kg/injection, schedule: Q01DX011 (ip), vehicle: carboxymethylcellulose (CMC), higher = larger tumour) was 58 % of control and the T/C (endpoint: mean tumor weight, dose: 190.0 mg/kg/injection, schedule: Q01DX011 (ip), vehicle: carboxymethylcellulose (CMC), higher = larger tumour) was 61 % of control.
